Test results reported in ChEMBL document CHEMBL5543097, “Synthesis and structure-activity relationships of novel 14-membered 2-fluoro ketolides with structural modification at the C11 position” (Eur J Med Chem, 2024).
≈ marks a conversion by molar mass, not a printed value.

How the values were obtained:
[1] = test system: Staphylococcus epidermidis; test: Antibacterial activity against erythromycin-resistant Staphylococcus epidermidis 19-6 assessed as inhibition of visible bacterial growth incubated for 18 hrs by broth microdilution method; format: functional
[2] = test system: Staphylococcus epidermidis; test: Antibacterial activity against erythromycin-resistant Staphylococcus epidermidis 19-11 assessed as inhibition of visible bacterial growth incubated for 18 hrs by broth microdilution method; format: functional
Streptococcus pyogenes = test: Antibacterial activity against erythromycin-resistant Streptococcus pyogenes ATCC 19615 assessed as inhibition of visible bacterial growth incubated for 18 hrs by broth microdilution method; format: functional
[3] = Metabolic stability in human liver microsome assessed as half life measured at 60 mins by LC-MS/MS analysis; format: ADME; conditions: liver microsomes
Streptococcus agalactiae [4] = test: Antibacterial activity against erythromycin-resistant Streptococcus agalactiae 19-8 assessed as inhibition of visible bacterial growth incubated for 18 hrs by broth microdilution method; format: functional
Haemophilus influenzae [5] = test: Antibacterial activity against Haemophilus influenzae HIN 19-15 assessed as inhibition of bacterial growth incubated for 20 to 24 hrs by CLSI based broth microdilution method; format: functional; conditions: time 20-24 hrs
Streptococcus pneumoniae [6] = test: Antibacterial activity against erythromycin-resistant Streptococcus pneumoniae SPN19-8 assessed as inhibition of visible bacterial growth incubated for 18 hrs by broth microdilution method; format: functional
[7] = Metabolic stability in human liver microsome assessed as parent compound remaining in presence of NADPH measured at 60 mins by LC-MS/MS analysis; format: ADME; conditions: liver microsomes, read-out: Stability
Moraxella catarrhalis [8] = test: Antibacterial activity against Moraxella catarrhalis BCA 19-6 assessed as inhibition of bacterial growth incubated for 24 hrs by CLSI based broth microdilution method; format: functional
Haemophilus influenzae [9] = test: Antibacterial activity against Haemophilus influenzae HIN 19-18 assessed as inhibition of bacterial growth incubated for 20 to 24 hrs by CLSI based broth microdilution method; format: functional; conditions: HIN 19-18, time 20-24 hrs
Streptococcus pneumoniae [10] = test: Antibacterial activity against erythromycin-resistant Streptococcus pneumoniae SPN19-14 assessed as inhibition of visible bacterial growth incubated for 18 hrs by broth microdilution method; format: functional
Streptococcus agalactiae [11] = test: Antibacterial activity against erythromycin-resistant Streptococcus agalactiae 19-9 assessed as inhibition of visible bacterial growth incubated for 18 hrs by broth microdilution method; format: functional
Moraxella catarrhalis [12] = test: Antibacterial activity against Moraxella catarrhalis BCA 19-31 assessed as inhibition of bacterial growth incubated for 24 hrs by CLSI based broth microdilution method; format: functional; conditions: BCA 19-31, 24 h
[13] = Metabolic stability in human liver microsome assessed as intrinsic clearance measured at 60 mins by LC-MS/MS analysis; format: ADME; conditions: liver microsomes, read-out: CLH
Moraxella catarrhalis [14] = test: Antibacterial activity against Moraxella catarrhalis BCA 19-5 assessed as inhibition of bacterial growth incubated for 24 hrs by CLSI based broth microdilution method; format: functional; conditions: Moraxella catarrhalis, BCA 19-5, 24 h, read-out: MIC
[15] = test system: Staphylococcus epidermidis; test: Antibacterial activity against erythromycin-resistant Staphylococcus epidermidis 19-9 assessed as inhibition of visible bacterial growth incubated for 18 hrs by broth microdilution method; format: functional
[16] = Cytotoxicity against mouse AML12 cells assessed as reduction in cell viability incubated for 48 hrs by MTT assay; format: toxicity, cell-based
Streptococcus pneumoniae [17] = test: Antibacterial activity against erythromycin-resistant Streptococcus pneumoniae SPN19-13 assessed as inhibition of visible bacterial growth incubated for 18 hrs by broth microdilution method; format: functional
[18] = test system: Staphylococcus epidermidis; test: Antibacterial activity against erythromycin-resistant Staphylococcus epidermidis 19-5 assessed as inhibition of visible bacterial growth incubated for 18 hrs by broth microdilution method; format: functional
[19] = test system: Staphylococcus epidermidis; test: Antibacterial activity against erythromycin-resistant Staphylococcus epidermidis 19-4 assessed as inhibition of visible bacterial growth incubated for 18 hrs by broth microdilution method; format: functional
[20] = Metabolic stability in human liver microsome assessed as parent compound remaining in absence of NADPH measured at 60 mins by LC-MS/MS analysis; format: ADME; conditions: liver microsomes, read-out: Stability
[21] = test system: Staphylococcus epidermidis; test: Antibacterial activity against erythromycin-resistant Staphylococcus epidermidis 19-8 assessed as inhibition of visible bacterial growth incubated for 18 hrs by broth microdilution method; format: functional
[22] = test system: Staphylococcus epidermidis; test: Potency index, ratio of telithromycin MIC to test compound MIC for antibacterial activity against erythromycin-resistant Staphylococcus epidermidis 19-5 assessed as inhibition of visible bacterial growth incubated for 18 hrs by broth microdilution method; format: functional
[23] = test system: Staphylococcus epidermidis; test: Potency index, ratio of telithromycin MIC to test compound MIC for antibacterial activity against erythromycin-resistant Staphylococcus epidermidis 19-6 assessed as inhibition of visible bacterial growth incubated for 18 hrs by broth microdilution method; format: functional
[24] = test system: Staphylococcus epidermidis; test: Potency index, ratio of telithromycin MIC to test compound MIC for antibacterial activity against erythromycin-resistant Staphylococcus epidermidis 19-11 assessed as inhibition of visible bacterial growth incubated for 18 hrs by broth microdilution method; format: functional
[25] = test system: Staphylococcus epidermidis; test: Potency index, ratio of telithromycin MIC to test compound MIC for antibacterial activity against erythromycin-resistant Staphylococcus epidermidis 19-9 assessed as inhibition of visible bacterial growth incubated for 18 hrs by broth microdilution method; format: functional
[26] = test system: Staphylococcus epidermidis; test: Potency index, ratio of telithromycin MIC to test compound MIC for antibacterial activity against erythromycin-resistant Staphylococcus epidermidis 19-4 assessed as inhibition of visible bacterial growth incubated for 18 hrs by broth microdilution method; format: functional
[27] = test system: Staphylococcus epidermidis; test: Potency index, ratio of telithromycin MIC to test compound MIC for antibacterial activity against erythromycin-resistant Staphylococcus epidermidis 19-8 assessed as inhibition of visible bacterial growth incubated for 18 hrs by broth microdilution method; format: functional
Streptococcus pneumoniae [28] = test: Potency index, ratio of telithromycin MIC to test compound MIC for antibacterial activity against Streptococcus pneumoniae SPN19-14 assessed as inhibition of visible bacterial growth incubated for 18 hrs by broth microdilution method; format: functional
Haemophilus influenzae [29] = test: Antibacterial activity against Haemophilus influenzae HIN 20-18 assessed as inhibition of bacterial growth incubated for 20 to 24 hrs by CLSI based broth microdilution method; format: functional; conditions: time 20-24 hrs
Streptococcus pneumoniae [30] = test: Potency index, ratio of telithromycin MIC to test compound MIC for antibacterial activity against Streptococcus pneumoniae SPN19-8 assessed as inhibition of visible bacterial growth incubated for 18 hrs by broth microdilution method; format: functional
Streptococcus pneumoniae [31] = test: Potency index, ratio of telithromycin MIC to test compound MIC for antibacterial activity against Streptococcus pneumoniae SPN19-13 assessed as inhibition of visible bacterial growth incubated for 18 hrs by broth microdilution method; format: functional
[32] = Moraxella catarrhalis, BCA 19-6, 24 h, read-out: MIC

SMILES | MIC [1] [µg/mL] | MIC [2] [µg/mL] | MIC (Streptococcus pyogenes) [µg/mL] | half-life [3] [min] | MIC (Streptococcus agalactiae [4]) [µg/mL] | MIC (Haemophilus influenzae [5]) [µg/mL] | MIC (Streptococcus pneumoniae [6]) [µg/mL] | remaining at 1 h [7] [%] | MIC (Moraxella catarrhalis [8]; [32]) [µg/mL] | MIC (Haemophilus influenzae [9]) [µg/mL] | MIC (Streptococcus pneumoniae [10]) [µg/mL] | MIC (Streptococcus agalactiae [11]) [µg/mL] | MIC (Moraxella catarrhalis [12]) [µg/mL] | MIC (Moraxella catarrhalis [14]) [µg/mL] | MIC [15] [µg/mL] | CC50 at 48 h [16] [µM] | MIC (Streptococcus pneumoniae [17]) [µg/mL] | MIC [18] [µg/mL] | MIC [19] [µg/mL] | MIC [21] [µg/mL] | other results
CC[C@H]1OC(=O)[C@@](C)(F)C(=O)[C@H](C)[C@@H](O[C@@H]2O[C@H](C)C[C@H](N(C)C)[C@H]2O)[C@](C)(OC)C[C@@H](C)C(=O)[C@H](C)[C@H]2N(CCCOC(=O)Nc3cccc(C)c3)C(=O)O[C@]12C | 0.03 (≈ 0.0365 µM) | < 0.03 | < 0.03 | 5.2 | < 0.03 | 8 (≈ 9.73 µM) | 0.125 (≈ 0.152 µM) | 1.2 | < 0.03 | 8 (≈ 9.73 µM) | < 0.03 | 0.06 (≈ 0.073 µM) | < 0.03 | < 0.03 | 0.06 (≈ 0.073 µM) | 76.8 | < 0.03 | < 0.03 | < 0.03 | < 0.03 | microsomal CLint [13]: 266 µL/min/mg; remaining at 1 h [20]: 97.5%
CC[C@H]1OC(=O)[C@@](C)(F)C(=O)[C@H](C)[C@@H](O[C@@H]2O[C@H](C)C[C@H](N(C)C)[C@H]2O)[C@](C)(OC)C[C@@H](C)C(=O)[C@H](C)[C@H]2N(CCCOC(=O)Nc3cccc(SC)c3)C(=O)O[C@]12C | 0.03 (≈ 0.0351 µM) | 0.03 (≈ 0.0351 µM) | < 0.03 | – | < 0.03 | 2 (≈ 2.34 µM) | < 0.03 | – | < 0.03 | 1 (≈ 1.17 µM) | < 0.03 | 0.125 (≈ 0.146 µM) | < 0.03 | < 0.03 | < 0.03 | 34.4 | < 0.03 | 0.03 (≈ 0.0351 µM) | < 0.03 | < 0.03 | Ratio [22]: 4; Ratio [23]: 4; Ratio [24]: 4; Ratio [25]: 4; Ratio [26]: 4; Ratio [27]: 4
CC[C@H]1OC(=O)[C@@](C)(F)C(=O)[C@H](C)[C@@H](O[C@@H]2O[C@H](C)C[C@H](N(C)C)[C@H]2O)[C@](C)(OC)C[C@@H](C)C(=O)[C@H](C)[C@H]2N(CCCOC(=O)Nc3ccc4c(c3)OCO4)C(=O)O[C@]12C | 0.06 (≈ 0.0704 µM) | < 0.03 | < 0.03 | – | < 0.03 | 4 (≈ 4.7 µM) | 0.03 (≈ 0.0352 µM) | – | < 0.03 | – | < 0.03 | 0.125 (≈ 0.147 µM) | – | < 0.03 | 0.125 (≈ 0.147 µM) | 85.6 | < 0.03 | < 0.03 | 0.06 (≈ 0.0704 µM) | < 0.03 | Ratio (Streptococcus pneumoniae [28]): <4; MIC (Haemophilus influenzae [29]): 8 µg/mL (≈ 9.39 µM); MIC (Moraxella catarrhalis [8]; 24 h): 0.06 µg/mL (≈ 0.0704 µM); Ratio (Streptococcus pneumoniae [30]): <4; Ratio (Streptococcus pneumoniae [31]): <4
CC[C@H]1OC(=O)[C@@](C)(F)C(=O)[C@H](C)[C@@H](O[C@@H]2O[C@H](C)C[C@H](N(C)C)[C@H]2O)[C@](C)(OC)C[C@@H](C)C(=O)[C@H](C)[C@H]2N(CCCOC(=O)Nc3ccc4sccc4c3)C(=O)O[C@]12C | 0.06 (≈ 0.0694 µM) | < 0.03 | < 0.03 | – | – | – | 0.06 (≈ 0.0694 µM) | – | – | – | 0.03 (≈ 0.0347 µM) | 0.25 (≈ 0.289 µM) | – | – | 1 (≈ 1.16 µM) | 11.6 | < 0.03 | < 0.03 | 0.03 (≈ 0.0347 µM) | 0.06 (≈ 0.0694 µM) | Ratio (Streptococcus pneumoniae [28]): <4; Ratio [22]: 4; Ratio [23]: 4; Ratio [24]: 4; Ratio [25]: 4; Ratio (Streptococcus pneumoniae [30]): <4; Ratio [26]: 4; Ratio (Streptococcus pneumoniae [31]): <4; Ratio [27]: 4
CC[C@H]1OC(=O)[C@@](C)(F)C(=O)[C@H](C)[C@@H](O[C@@H]2O[C@H](C)C[C@H](N(C)C)[C@H]2O)[C@](C)(OC)C[C@@H](C)C(=O)[C@H](C)[C@H]2N(CCCOC(=O)Nc3c(C)noc3C)C(=O)O[C@]12C | 0.25 (≈ 0.302 µM) | 0.125 (≈ 0.151 µM) | < 0.03 | 37.2 | – | 1 (≈ 1.21 µM) | 0.25 (≈ 0.302 µM) | 26.6 | 0.5 (≈ 0.605 µM) | 1 (≈ 1.21 µM) | 0.25 (≈ 0.302 µM) | 4 (≈ 4.84 µM) | 0.125 (≈ 0.151 µM) | 0.5 (≈ 0.605 µM) | 0.5 (≈ 0.605 µM) | > 100 | 0.25 (≈ 0.302 µM) | 0.03 (≈ 0.0363 µM) | 0.25 (≈ 0.302 µM) | 0.25 (≈ 0.302 µM) | MIC (Haemophilus influenzae [29]): 8 µg/mL (≈ 9.67 µM); microsomal CLint [13]: 37.3 µL/min/mg; remaining at 1 h [20]: 101%
CC[C@H]1OC(=O)[C@@](C)(F)C(=O)[C@H](C)[C@@H](O[C@@H]2O[C@H](C)C[C@H](N(C)C)[C@H]2O)[C@](C)(OC)C[C@@H](C)C(=O)[C@H](C)[C@H]2N(CCCOC(=O)Nc3ccccc3C)C(=O)O[C@]12C | 0.125 (≈ 0.152 µM) | < 0.03 | < 0.03 | 176 | – | 4 (≈ 4.87 µM) | 0.125 (≈ 0.152 µM) | 73.3 | 0.125 (≈ 0.152 µM) | 2 (≈ 2.43 µM) | 0.125 (≈ 0.152 µM) | 0.5 (≈ 0.608 µM) | 0.05 (≈ 0.0608 µM) | 0.125 (≈ 0.152 µM) | 0.25 (≈ 0.304 µM) | > 100 | 0.125 (≈ 0.152 µM) | < 0.03 | 0.06 (≈ 0.073 µM) | 0.06 (≈ 0.073 µM) | MIC (Haemophilus influenzae [29]): 16 µg/mL (≈ 19.5 µM); microsomal CLint [13]: 4 µL/min/mg; remaining at 1 h [20]: 101%
